# Measurements from patent US8637075B2, “Colostrum composition” (Pharma GP ApS, priority 2008, dated 2014).
# Columns and labels:
# Assay type in all cases: cell-based
# [1] = test system: indoleamine 2,3-dioxygenase (IDO) activity in PHA-stimulated PBMC; assay: Example 16: IDO activity (kyn/trp) in PHA-stimulated human PBMC; conditions: PHA 10 μg/ml, 48 h
# Method: (§1) PBMC were isolated from whole blood obtained from healthy donors, of whom informed consent was obtained that their donated blood unit was used for scientific purposes if not otherwise used. Separation of blood cells was performed using density centrifugation (Lymphoprep, Nycomed Pharma AS, Oslo, Norway). After isolation, PBMC were washed three times in phosphate buffered saline containing […] [0.5 mmol/L]. Cells were maintained in RPMI 1640 supplemented with 10% heat-inactivated fetal calf serum (Biochrom, Berlin, Germany), 1% of 200 mmol/L glutamine (Serve, Heidelberg, Germany) and 0.1% of gentamicin (50 mg/ml, Bio-Whittaker, Walkersville, Md.) in a humidified atmosphere containing 5% CO2 for 48 h. This procedure was observed earlier to reveal best reproducible results when applied for testing of anti-inflammatory effects of compounds or drugs (Widner et al., 1997). Average tryptophan content in the supplemented RPMI 1640 medium was 31.5 μmol/L. For each of the three experiments run in duplicates, PBMC were freshly prepared. Isolated PBMC were plated at a density of 1.5×10^6 cells/ml in supplemented RPMI 1640, preincubated for 30 minutes with or without BC preparations and stimulated or not with 10 μg/ml PHA for 48 h.
# (§2) After incubation of cells for 48 h, supernatants were harvested by centrifugation and tryptophan and kynurenine concentrations were measured by high performance liquid chromatography (HPLC) using 3-nitro-L-tyrosine as internal standard (Widner and others 1997). To estimate IDO activity, the kynurenine to tryptophan ratio (kyn/trp) was calculated and expressed as μmol kynurenine/mmol tryptophan (Widner et al., 1997). Neopterin concentrations were determined by ELISA (BRAHMS, Hennigsdorf/Berlin, Germany) according to the manufacturer's instructions with a detection limit of 2 nmol/L.
# (§3) For statistical analysis, the Statistical Package for the Social Sciences (version 14 SPSS, Chicago, Ill., USA) was used. […] P-values below 0.05 were considered to indicate significant differences.
# [2] = test system: indoleamine 2,3-dioxygenase (IDO) activity in unstimulated PBMC; assay: Example 16: IDO activity (kyn/trp) in unstimulated human PBMC; conditions: 20 mg/ml, 48 h
# Method: (§4) PBMC were isolated from whole blood obtained from healthy donors, of whom informed consent was obtained that their donated blood unit was used for scientific purposes if not otherwise used. Separation of blood cells was performed using density centrifugation (Lymphoprep, Nycomed Pharma AS, Oslo, Norway). After isolation, PBMC were washed three times in phosphate buffered saline containing 0.2% EDTA [0.5 mmol/L]. Cells were maintained in RPMI 1640 supplemented with 10% heat-inactivated fetal calf serum (Biochrom, Berlin, Germany), 1% of 200 mmol/L glutamine (Serve, Heidelberg, Germany) and 0.1% of gentamicin (50 mg/ml, Bio-Whittaker, Walkersville, Md.) in a humidified atmosphere containing 5% CO2 for 48 h. […]
# as §2, with “nmol/L. […]” for “nmol/L.”
# [3] = test system: neopterin formation in unstimulated PBMC; assay: Example 16: neopterin formation in unstimulated human PBMC; conditions: 48 h
# Method: as §4
# as §2, with “nmol/L. […]” for “nmol/L.”
# [4] = test system: neopterin formation in PHA-stimulated PBMC; assay: Example 16: neopterin formation in PHA-stimulated human PBMC; conditions: PHA 10 μg/ml, 48 h
# Method: as §1, §2, §3
Substance,IDO activity (kyn/trp) as % of PHA control ([1]; 0.2 mg/ml),IDO activity (kyn/trp) as % of unstimulated control [2],neopterin formation as % of unstimulated control ([3]; 0.2 mg/ml),neopterin formation as % of unstimulated control ([3]; 2 mg/ml),neopterin formation as % of PHA control ([4]; 2 mg/ml),neopterin formation as % of PHA control ([4]; 20 mg/ml),Kyn/trp ([1]; PBMC),increase of IDO activity versus unstimulated PBMC ([1]; PBMC),kynurenine concentration in the supernatant ([1]; PBMC),tryptophan content in the supernatant ([1]; PBMC),increase of neopterin concentration versus unstimulated PBMC ([4]; PBMC),neopterin concentration in the supernatant ([4]; PBMC)
lactoferrin,34.0±9.7%,54.7±5.0%,125±2.8%,132±4.1%,61.3±11.7%,31.1±3.9%,,,,,,
phytohemagglutinin [phytohemagglutinin (PHA)],,,,,,,1312±459 μmol/mmol,approximately 47 fold,9.8 ± 1.3 µmol/L,8.2 ± 2.0 µmol/L,about 3.6 fold,13.2 ± 3.6 nmol/L
